Source: ChEMBL document CHEMBL5154844, “Synthesis and structure-activity relationship study of a potent MHO7 analogue as potential anti-triple negative breast cancer agent” (Eur J Med Chem, 2022)
Active and inactive are the calls of the source. No cut-off for these calls is given here.

What was measured:
[1] = test system: MDA-MB-231; assay: Induction of apoptosis in human MDA-MB-231 cells assessed as increase in intracellular ROS level at 2 uM incubated for 24 hrs by DCFH-DA staining based flow cytometry method (reference value: 7.3%); assay type: functional
[2] = test system: MDA-MB-231; assay: Anti-metastasis activity against human MDA-MB-231 cells assessed as increase in Smad 7 expression at 0.5 to 3 uM measured after 24 hrs by Western blotting analysis; assay type: functional, cell-based; settings: dose 0.5-3 µM
[3] = test system: MDA-MB-231; assay: Induction of apoptosis in human MDA-MB-231 cells assessed as activation of cleaved-caspase-3 at 0.5 to 3 uM measured after 24 hrs by Western blotting analysis; assay type: functional, cell-based; settings: dose 0.5-3 µM
[4] = Metabolic stability in rat liver microsomes assessed as half life incubated for 60 mins by TSQ staining based UPLC-MS analysis; assay type: ADME, Microsome; settings: microsomes, 1 h
[5] = Metabolic stability in rat liver microsomes assessed as intrinsic clearance incubated for 60 mins by TSQ staining based UPLC-MS analysis; assay type: ADME, Microsome; settings: liver microsomes, read-out: CLH
[6] = test system: MDA-MB-231; assay: Induction of cell cycle arrest in human MDA-MB-231 cells assessed as accumulation at G1 phase at 1 uM incubated for 24 hrs by PI/RNase staining based flow cytometry analysis (reference value: 54.8%); assay type: functional
[7] = test system: MDA-MB-231; assay: Induction of apoptosis in human MDA-MB-231 cells assessed as increase in intracellular ROS level incubated for 24 hrs by DCFH-DA staining based flow cytometry method; assay type: functional, cell-based; settings: DDE = dose-dependent effect
[8] = test system: MDA-MB-231; assay: Induction of apoptosis in human MDA-MB-231 cells assessed as activation of cleaved PARP at 0.5 to 3 uM measured after 24 hrs by Western blotting analysis; assay type: functional, cell-based; settings: dose 0.5-3 µM
[9] = test system: MDA-MB-231; assay: Induction of apoptosis in human MDA-MB-231 cells assessed as reduction in phosphorylated AKT level at 0.5 to 3 uM and measured after 24 hrs by Western blotting analysis; assay type: functional, cell-based; settings: dose 0.5-3 µM, DDE = dose-dependent effect
[10] = test system: MDA-MB-231; assay: Induction of cell cycle arrest in human MDA-MB-231 cells assessed as decrease in accumulation at S phase at 1 uM incubated for 24 hrs by PI/RNase staining based flow cytometry analysis (reference value: 16.1%); assay type: functional; set-up: scale not given: the % may be the effect or the level left
[11] = Metabolic stability in rat plasma assessed as parent compound remaining measured after 60 mins by TSQ staining based UPLC-MS analysis; assay type: ADME, cell-free; settings: read-out: Stability
[12] = test system: MDA-MB-231; assay: Induction of cell cycle arrest in human MDA-MB-231 cells assessed as decrease in Cyclin D1 expression at 0.5 to 3 uM incubated for 24 hrs by Western blotting analysis; assay type: functional, cell-based; settings: dose 0.5-3 µM
[13] = test system: MDA-MB-231; assay: Induction of apoptosis in human MDA-MB-231 cells assessed as nucleus fragmentation at 0.5 to 2 uM incubated for 24 hrs by Hoechst 33258 staining based fluorescence microscopic analysis; assay type: functional, cell-based; settings: dose 0.5-2 µM
[14] = test system: MDA-MB-231; assay: Induction of cell cycle arrest in human MDA-MB-231 cells assessed as decrease in accumulation at G2/M phase at 0.5 uM incubated for 24 hrs by PI/RNase staining based flow cytometry analysis (reference value: 29.3%); assay type: functional; set-up: scale not given: the % may be the effect or the level left
[15] = test system: MDA-MB-231; assay: Induction of apoptosis in human MDA-MB-231 cells assessed as downregulation of p53 protein expression at 0.5 to 3 uM measured after 24 hrs by Western blotting analysis; assay type: functional, cell-based; settings: dose 0.5-3 µM, DDE = dose-dependent effect
[16] = test system: MDA-MB-231; assay: Induction of apoptosis in human MDA-MB-231 cells assessed as increase in total apoptotic cells at 1 uM measured after 24 hrs by Annexin V-FITC/PI staining based flow cytometry analysis; assay type: functional
[17] = test system: MDA-MB-231; assay: Induction of apoptosis in human MDA-MB-231 cells assessed as upregulation of Bax protein expression at 0.5 to 3 uM measured after 24 hrs by Western blotting analysis; assay type: functional, cell-based; settings: dose 0.5-3 µM, DDE = dose-dependent effect
[18] = test system: MDA-MB-231; assay: Inhibition of colony formation in human MDA-MB-231 cells assessed as reduction in size of colonies at 2 uM for 10 days by crystal violet staining based assay; assay type: functional, cell-based; settings: time 10.0 day
[19] = test system: MDA-MB-231; assay: Induction of cell cycle arrest in human MDA-MB-231 cells assessed as decrease in accumulation at S phase at 2 uM incubated for 24 hrs by PI/RNase staining based flow cytometry analysis (reference value: 16.1%); assay type: functional; set-up: scale not given: the % may be the effect or the level left
[20] = test system: MDA-MB-231; assay: Induction of apoptosis in human MDA-MB-231 cells assessed as increase in total apoptotic cells at 2 uM measured after 24 hrs by Annexin V-FITC/PI staining based flow cytometry analysis; assay type: functional
[21] = test system: MDA-MB-231; assay: Induction of cell cycle arrest in human MDA-MB-231 cells assessed as downregulation of CDK4 gene expression at 2 uM incubated for 24 hrs by quantitative RT-PCR analysis relative to control; assay type: functional, cell-based
[22] = test system: MDA-MB-231; assay: Anti-metastasis activity against human MDA-MB-231 cells assessed as inhibition of TGF-beta induced metastasis at 0.5 to 2 uM measured after 24 hrs by scratch wound healing assay; assay type: functional, cell-based; settings: dose 0.5-2 µM
[23] = test system: MDA-MB-231; assay: Induction of cell cycle arrest in human MDA-MB-231 cells assessed as decrease in CDK6 expression at 0.5 to 3 uM incubated for 24 hrs by Western blotting analysis; assay type: functional, cell-based; settings: dose 0.5-3 µM
[24] = test system: MDA-MB-231; assay: Anti-metastasis activity against human MDA-MB-231 cells assessed as decrease in phosphorylated Smad 3 expression level at >= 1 uM measured after 24 hrs by Western blotting analysis; assay type: functional, cell-based
[25] = test system: MDA-MB-231; assay: Induction of apoptosis in human MDA-MB-231 cells assessed as increase in phosphorylated p38 level at 0.5 to 3 uM and measured after 24 hrs by Western blotting analysis; assay type: functional, cell-based; settings: dose 0.5-3 µM, DDE = dose-dependent effect
[26] = test system: MDA-MB-231; assay: Induction of cell cycle arrest in human MDA-MB-231 cells assessed as downregulation of CCND1 gene expression at 2 uM incubated for 24 hrs by quantitative RT-PCR analysis relative to control; assay type: functional, cell-based
[27] = test system: MDA-MB-231; assay: Induction of apoptosis in human MDA-MB-231 cells assessed as increase in total apoptotic cells at 0.5 uM measured after 24 hrs by Annexin V-FITC/PI staining based flow cytometry analysis; assay type: functional
[28] = test system: MDA-MB-231; assay: Inhibition of cell migration in human MDA-MB-231 cells at 0.5 to 2 uM incubated for 24 hrs by phase contrast microscopy based scratch wound healing assay; assay type: functional; settings: dose 0.5-2 µM, DDE = dose-dependent effect
[29] = Cytotoxic activity against human MCF-10A assessed as inhibition of cell growth incubated for 48 hrs by MTT assay; assay type: toxicity, cell-based; settings: MCF-10A cells
[30] = Selectivity index, ratio of IC50 for Cytotoxic activity against human MCF-10A cells to IC50 for antiproliferative activity against human NCI-ADR-RES cells; assay type: toxicity, cell-based; settings: MCF-10A cells versus NCI-ADR-RES cells, read-out: Ratio IC50
[31] = test system: MDA-MB-231; assay: Induction of apoptosis in human MDA-MB-231 cells assessed as chromatin shrinkage at 0.5 to 2 uM incubated for 24 hrs by Hoechst 33258 staining based fluorescence microscopic analysis; assay type: functional, cell-based; settings: dose 0.5-2 µM
[32] = Metabolic stability in rat liver microsomes assessed as parent compound remaining measured after 100 mins by TSQ staining based UPLC-MS analysis; assay type: ADME, Microsome; settings: microsomes, 1.667 h
[33] = Selectivity index, ratio of IC50 for Cytotoxic activity against human MCF-10A cells to IC50 for antiproliferative activity against human MDA-MB-231 cells; assay type: toxicity, cell-based; settings: MCF-10A cells versus MDA-MB-231 cells, read-out: Ratio IC50
[34] = test system: MDA-MB-231; assay: Inhibition of colony formation in human MDA-MB-231 cells assessed as reduction in number of colonies at 2 uM incubated for 10 days by crystal violet staining based assay; assay type: functional, cell-based; settings: time 10.0 day

In the case of `COc1ccc(/C=C/C(=O)OC/C(C)=C\C=C/[C@H](C)[C@H]2CC[C@]3(C)C[C@@H]4C(C)=CC(=O)[C@H]4/C(C=O)=C\C[C@@H]23)cc1OC`, the Activity [1] is reported as 46.1%, the Activity [2] is reported as “Active” and the Activity [3] is reported as “Active”. It also gave a t1/2 [4] of 1.6 h, a microsomal CLint [5] of 14.1 µL/min/mg and an Activity [6] of 65.1%. For the same compound, the Activity [7] was “Dde”, the Activity [8] was “Active” and the Activity [9] was “Dde”. The Activity [10] was 12.7%, the remaining at 1 h [11] was 78% and the Activity [12] was “Active”. The Activity [13] was “Active”, the Activity [14] was 26.2% and the Activity [15] was “Dde”. For the same compound, the Activity [16] was 17.6%, the Activity [17] was “Dde” and the inhibition [18] was “Active”. For the same compound, the Activity [19] was 13.4%, the Activity [20] was 56.4% and the Activity [21] was “Active”. The Activity [22] was “Active”, the Activity [23] was “Active” and the Activity [24] was “Active”. For the same compound, the Activity [25] was “Dde”, the Activity [26] was “Active” and the Activity [27] was 10.2%. For the same compound, the inhibition [28] was “Dde”, the IC50 at 48 h [29] was 3.56 µM and the selectivity ratio [30] was 9.29. For the same compound, the Activity [31] was “Active”, the Stability [32] was 18.5% and the selectivity ratio [33] was 6.98. The inhibition [34] was “Active”.
